From the kinase profiling compilation of Christmann-Franck et al. (2016)
Values belong to the compound of their own block, whether it stands above or below them.

Experiments:
Assay in all cases: KINOMEscan competition binding
Settings in all cases: compound 10.0 µM
BMPR1A (human) = BMPR1A (human) (UniProt P36894)
PKN2 (human) = PKN2 (human) (UniProt Q16513)
PRKD2 (human) = PRKD2 (human) (UniProt Q9BZL6)
ABL1 (human) = ABL1 (human) (UniProt P00519)
[1] = system: ABL1 (human), P00519 [Q252H]
[2] = system: ABL1 (human), P00519 [T315I]
ADCK3 (human) = ADCK3 (human) (UniProt Q8NI60)
ADCK4 (human) = ADCK4 (human) (UniProt Q96D53)
ANKK1 (human) = ANKK1 (human) (UniProt Q8NFD2)
CAMK2G (human) = CAMK2G (human) (UniProt Q13555)
CDK15 (human) = CDK15 (human) (UniProt Q96Q40)
Chain of CDK15 (human) (Q96Q40 whole entry, looked up): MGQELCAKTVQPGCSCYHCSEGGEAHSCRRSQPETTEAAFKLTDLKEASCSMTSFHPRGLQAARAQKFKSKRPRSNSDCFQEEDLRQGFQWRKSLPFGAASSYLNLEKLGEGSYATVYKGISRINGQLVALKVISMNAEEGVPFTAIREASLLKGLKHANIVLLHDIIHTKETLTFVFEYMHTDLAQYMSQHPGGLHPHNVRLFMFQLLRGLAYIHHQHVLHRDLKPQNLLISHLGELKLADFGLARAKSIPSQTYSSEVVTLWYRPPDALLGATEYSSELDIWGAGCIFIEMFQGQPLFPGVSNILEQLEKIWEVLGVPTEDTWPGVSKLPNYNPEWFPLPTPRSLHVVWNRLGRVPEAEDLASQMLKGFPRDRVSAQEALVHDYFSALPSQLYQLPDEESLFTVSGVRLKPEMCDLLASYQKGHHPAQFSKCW

CSK (human) = CSK (human) (UniProt P41240)
DCLK1 (human) = DCLK1 (human) (UniProt O15075)
Chain of DCLK1 (human) (O15075 whole entry, looked up): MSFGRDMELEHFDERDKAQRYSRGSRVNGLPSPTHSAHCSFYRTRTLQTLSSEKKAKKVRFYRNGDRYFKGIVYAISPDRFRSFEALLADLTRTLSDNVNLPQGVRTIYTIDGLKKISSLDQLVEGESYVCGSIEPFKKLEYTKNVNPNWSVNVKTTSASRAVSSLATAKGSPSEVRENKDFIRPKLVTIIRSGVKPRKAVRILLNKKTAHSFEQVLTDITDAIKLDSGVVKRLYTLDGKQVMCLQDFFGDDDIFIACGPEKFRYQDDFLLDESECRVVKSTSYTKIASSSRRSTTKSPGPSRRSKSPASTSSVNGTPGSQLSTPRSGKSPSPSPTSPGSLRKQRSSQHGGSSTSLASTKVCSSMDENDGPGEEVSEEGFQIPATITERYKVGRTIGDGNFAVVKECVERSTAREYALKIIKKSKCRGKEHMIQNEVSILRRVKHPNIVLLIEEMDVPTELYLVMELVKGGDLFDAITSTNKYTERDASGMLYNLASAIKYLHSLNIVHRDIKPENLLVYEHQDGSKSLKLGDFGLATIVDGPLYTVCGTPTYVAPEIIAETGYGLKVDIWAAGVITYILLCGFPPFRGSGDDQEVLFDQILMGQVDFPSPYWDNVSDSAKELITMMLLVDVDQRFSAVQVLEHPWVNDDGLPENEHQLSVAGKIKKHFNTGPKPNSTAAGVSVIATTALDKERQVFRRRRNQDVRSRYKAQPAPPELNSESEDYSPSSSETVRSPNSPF

DCLK2 (human) = DCLK2 (human) (UniProt Q8N568)
DDR1 (human) = DDR1 (human) (UniProt Q08345)
Chain of DDR1 (human) (Q08345 whole entry, looked up): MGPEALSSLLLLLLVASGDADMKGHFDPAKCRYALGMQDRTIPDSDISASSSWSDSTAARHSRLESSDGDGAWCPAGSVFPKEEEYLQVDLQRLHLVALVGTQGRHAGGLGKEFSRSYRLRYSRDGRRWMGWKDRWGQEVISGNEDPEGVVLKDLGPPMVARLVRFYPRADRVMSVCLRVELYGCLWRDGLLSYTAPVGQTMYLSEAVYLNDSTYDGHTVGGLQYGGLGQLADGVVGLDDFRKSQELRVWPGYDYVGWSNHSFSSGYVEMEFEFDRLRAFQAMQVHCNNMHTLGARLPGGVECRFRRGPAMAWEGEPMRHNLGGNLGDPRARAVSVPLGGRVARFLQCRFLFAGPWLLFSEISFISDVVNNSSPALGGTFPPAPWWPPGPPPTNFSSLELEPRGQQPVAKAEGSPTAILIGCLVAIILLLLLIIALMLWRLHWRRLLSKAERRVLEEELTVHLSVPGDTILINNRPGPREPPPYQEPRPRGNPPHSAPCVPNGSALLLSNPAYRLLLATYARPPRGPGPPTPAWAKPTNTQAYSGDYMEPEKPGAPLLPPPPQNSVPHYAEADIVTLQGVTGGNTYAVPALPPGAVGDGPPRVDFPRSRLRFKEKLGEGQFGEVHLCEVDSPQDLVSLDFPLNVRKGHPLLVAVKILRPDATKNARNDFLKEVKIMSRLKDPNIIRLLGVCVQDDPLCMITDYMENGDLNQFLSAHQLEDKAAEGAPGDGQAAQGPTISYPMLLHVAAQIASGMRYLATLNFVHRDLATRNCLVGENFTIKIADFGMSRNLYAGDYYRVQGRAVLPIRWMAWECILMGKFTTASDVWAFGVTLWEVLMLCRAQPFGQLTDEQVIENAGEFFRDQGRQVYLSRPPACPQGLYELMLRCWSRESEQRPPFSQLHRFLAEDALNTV

[3] = system: EGFR (human), P00533 [P753S; 747-752 del]
FGFR2 (human) = FGFR2 (human) (UniProt P21802)
FLT1 (human) = FLT1 (human) (UniProt P17948)
GSK3B (human) = GSK3B (human) (UniProt P49841)
Chain of GSK3B (human) (P49841 whole entry, looked up): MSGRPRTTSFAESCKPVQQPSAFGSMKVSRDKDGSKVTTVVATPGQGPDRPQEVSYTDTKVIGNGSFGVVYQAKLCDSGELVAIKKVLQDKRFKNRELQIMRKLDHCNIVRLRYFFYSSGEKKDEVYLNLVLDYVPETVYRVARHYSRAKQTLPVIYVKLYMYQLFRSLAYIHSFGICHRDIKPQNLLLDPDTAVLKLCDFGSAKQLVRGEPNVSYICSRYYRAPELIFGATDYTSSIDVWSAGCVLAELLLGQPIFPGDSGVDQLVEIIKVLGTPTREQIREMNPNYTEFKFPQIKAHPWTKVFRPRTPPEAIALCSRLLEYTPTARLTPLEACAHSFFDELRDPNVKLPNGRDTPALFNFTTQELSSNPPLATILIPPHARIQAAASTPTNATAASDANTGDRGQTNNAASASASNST

[4] = molecular target: JAK2 JH1 catalytic (human) (UniProt O60674)
LATS2 (human) = LATS2 (human) (UniProt Q9NRM7)
MAP2K1 (human) = MAP2K1 (human) (UniProt Q02750)
MAP3K10 (human) = MAP3K10 (human) (UniProt Q02779)
MAP3K11 (human) = MAP3K11 (human) (UniProt Q16584)
MAP3K3 (human) = MAP3K3 (human) (UniProt Q99759)
MAP3K9 (human) = MAP3K9 (human) (UniProt P80192)
MAP4K1 (human) = MAP4K1 (human) (UniProt Q92918)
MAPK13 (human) = MAPK13 (human) (UniProt O15264)
MAPK3 (human) = MAPK3 (human) (UniProt P27361)
MLTK (human) = MLTK (human) (UniProt Q9NYL2)
MST1R (human) = MST1R (human) (UniProt Q04912)
MYO3B (human) = MYO3B (human) (UniProt Q8WXR4)
NEK7 (human) = NEK7 (human) (UniProt Q8TDX7)
Chain of NEK7 (human) (Q8TDX7 whole entry, looked up): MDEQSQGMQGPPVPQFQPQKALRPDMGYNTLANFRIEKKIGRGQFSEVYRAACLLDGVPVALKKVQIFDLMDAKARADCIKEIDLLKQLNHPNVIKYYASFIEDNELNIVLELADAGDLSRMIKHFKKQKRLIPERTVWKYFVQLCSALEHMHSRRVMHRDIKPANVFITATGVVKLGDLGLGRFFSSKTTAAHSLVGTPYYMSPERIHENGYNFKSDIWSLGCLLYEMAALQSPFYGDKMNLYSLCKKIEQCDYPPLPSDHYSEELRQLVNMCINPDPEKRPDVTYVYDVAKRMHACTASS

NLK (human) = NLK (human) (UniProt Q9UBE8)
PAK6 (human) = PAK6 (human) (UniProt Q9NQU5)
PIK3CD (human) = PIK3CD (human) (UniProt O00329)
PRKACB (human) = PRKACB (human) (UniProt P22694)
PRKCQ (human) = PRKCQ (human) (UniProt Q04759)
ROS1 (human) = ROS1 (human) (UniProt P08922)
RPS6KA5 KD1 (human) = RPS6KA5 KD1 (human) (UniProt O75582)
SRMS (human) = SRMS (human) (UniProt Q9H3Y6)
Chain of SRMS (human) (Q9H3Y6 whole entry, looked up): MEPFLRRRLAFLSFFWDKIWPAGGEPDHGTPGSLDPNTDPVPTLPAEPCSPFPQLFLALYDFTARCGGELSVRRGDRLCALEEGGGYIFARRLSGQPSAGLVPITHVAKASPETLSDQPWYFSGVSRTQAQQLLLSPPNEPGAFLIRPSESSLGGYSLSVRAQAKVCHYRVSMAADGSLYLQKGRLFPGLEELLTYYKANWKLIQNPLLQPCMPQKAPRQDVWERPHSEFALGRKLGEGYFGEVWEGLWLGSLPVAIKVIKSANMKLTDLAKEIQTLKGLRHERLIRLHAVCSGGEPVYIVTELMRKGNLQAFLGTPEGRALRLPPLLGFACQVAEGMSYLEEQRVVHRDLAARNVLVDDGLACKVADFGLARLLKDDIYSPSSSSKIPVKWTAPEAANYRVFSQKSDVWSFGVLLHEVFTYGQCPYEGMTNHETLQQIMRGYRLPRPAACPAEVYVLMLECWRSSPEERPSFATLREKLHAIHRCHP

TXK (human) = TXK (human) (UniProt P42681)
Chain of TXK (human) (P42681 whole entry, looked up): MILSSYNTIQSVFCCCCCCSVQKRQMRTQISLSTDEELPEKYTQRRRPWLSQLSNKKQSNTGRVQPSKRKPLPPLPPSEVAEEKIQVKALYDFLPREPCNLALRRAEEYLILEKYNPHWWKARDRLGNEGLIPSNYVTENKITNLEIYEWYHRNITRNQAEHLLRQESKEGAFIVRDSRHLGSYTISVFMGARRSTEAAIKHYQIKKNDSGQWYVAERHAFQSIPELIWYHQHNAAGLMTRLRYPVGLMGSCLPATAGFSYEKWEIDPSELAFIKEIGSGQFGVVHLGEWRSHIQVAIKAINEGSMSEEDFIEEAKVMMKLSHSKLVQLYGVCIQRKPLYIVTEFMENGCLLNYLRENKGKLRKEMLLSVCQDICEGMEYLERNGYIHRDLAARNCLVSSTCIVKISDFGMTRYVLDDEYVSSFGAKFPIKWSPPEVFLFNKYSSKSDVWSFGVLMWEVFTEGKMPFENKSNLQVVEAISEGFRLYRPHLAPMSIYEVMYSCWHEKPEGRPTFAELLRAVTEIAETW

Chain of PRKD2 (human) (Q9BZL6 whole entry, looked up): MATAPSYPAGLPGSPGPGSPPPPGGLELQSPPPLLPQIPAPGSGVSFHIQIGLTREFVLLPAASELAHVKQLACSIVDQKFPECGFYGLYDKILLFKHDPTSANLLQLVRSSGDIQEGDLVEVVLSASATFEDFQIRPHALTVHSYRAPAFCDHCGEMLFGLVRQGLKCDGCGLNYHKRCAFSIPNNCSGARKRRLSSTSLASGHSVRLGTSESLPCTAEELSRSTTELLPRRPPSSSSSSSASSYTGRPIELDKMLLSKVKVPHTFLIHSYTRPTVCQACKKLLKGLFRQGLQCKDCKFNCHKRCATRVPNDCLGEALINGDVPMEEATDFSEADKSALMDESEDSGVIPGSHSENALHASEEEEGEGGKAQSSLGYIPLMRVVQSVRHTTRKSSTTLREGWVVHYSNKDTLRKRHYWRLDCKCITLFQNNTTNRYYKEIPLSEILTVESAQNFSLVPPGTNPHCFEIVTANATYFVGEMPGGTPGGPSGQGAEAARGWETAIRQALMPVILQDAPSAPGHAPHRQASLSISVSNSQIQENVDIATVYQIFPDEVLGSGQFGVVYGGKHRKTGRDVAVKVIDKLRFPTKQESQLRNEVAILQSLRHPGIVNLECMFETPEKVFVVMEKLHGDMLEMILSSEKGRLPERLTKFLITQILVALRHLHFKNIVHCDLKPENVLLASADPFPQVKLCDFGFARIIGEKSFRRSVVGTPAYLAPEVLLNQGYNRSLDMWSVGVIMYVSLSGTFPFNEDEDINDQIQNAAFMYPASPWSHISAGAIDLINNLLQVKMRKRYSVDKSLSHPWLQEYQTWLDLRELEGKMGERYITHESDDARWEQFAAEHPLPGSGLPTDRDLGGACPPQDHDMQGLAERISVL

kinase still bound, per cent of control (BMPR1A (human)): 8% | kinase still bound, per cent of control (PKN2 (human)): 15% | kinase still bound, per cent of control (PRKD2 (human)): 32%
Structure (SMILES): CS(=O)(=O)Nc1ccc(-c2cc(/C=C3\SC(=N)NC3=O)c[nH]c2=O)cc1

kinase still bound, per cent of control (ABL1 (human)): 100% | kinase still bound, per cent of control [1]: 100% | kinase still bound, per cent of control [2]: 100% | kinase still bound, per cent of control (ADCK3 (human)): 78% | kinase still bound, per cent of control (ADCK4 (human)): 86% | kinase still bound, per cent of control (ANKK1 (human)): 100% | kinase still bound, per cent of control (BMPR1A (human)): 100% | kinase still bound, per cent of control (CAMK2G (human)): 80% | kinase still bound, per cent of control (CDK15 (human)): 99% | kinase still bound, per cent of control (CSK (human)): 90% | kinase still bound, per cent of control (DCLK1 (human)): 4.5% | kinase still bound, per cent of control (DCLK2 (human)): 0.4% | kinase still bound, per cent of control (DDR1 (human)): 100% | kinase still bound, per cent of control [3]: 91% | kinase still bound, per cent of control (FGFR2 (human)): 95% | kinase still bound, per cent of control (FLT1 (human)): 100% | kinase still bound, per cent of control (GSK3B (human)): 91% | kinase still bound, per cent of control [4]: 69% | kinase still bound, per cent of control (LATS2 (human)): 100% | kinase still bound, per cent of control (MAP2K1 (human)): 100% | kinase still bound, per cent of control (MAP3K10 (human)): 100% | kinase still bound, per cent of control (MAP3K11 (human)): 100% | kinase still bound, per cent of control (MAP3K3 (human)): 94% | kinase still bound, per cent of control (MAP3K9 (human)): 96% | kinase still bound, per cent of control (MAP4K1 (human)): 96% | kinase still bound, per cent of control (MAPK13 (human)): 87% | kinase still bound, per cent of control (MAPK3 (human)): 99% | kinase still bound, per cent of control (MLTK (human)): 100% | kinase still bound, per cent of control (MST1R (human)): 82% | kinase still bound, per cent of control (MYO3B (human)): 77% | kinase still bound, per cent of control (NEK7 (human)): 98% | kinase still bound, per cent of control (NLK (human)): 73% | kinase still bound, per cent of control (PAK6 (human)): 92% | kinase still bound, per cent of control (PIK3CD (human)): 48% | kinase still bound, per cent of control (PKN2 (human)): 100% | kinase still bound, per cent of control (PRKACB (human)): 100% | kinase still bound, per cent of control (PRKCQ (human)): 97% | kinase still bound, per cent of control (PRKD2 (human)): 45% | kinase still bound, per cent of control (ROS1 (human)): 29% | kinase still bound, per cent of control (RPS6KA5 KD1 (human)): 59% | kinase still bound, per cent of control (SRMS (human)): 87% | kinase still bound, per cent of control (TXK (human)): 100%
Structure (SMILES): COc1cc(N2CCC(O)CC2)ccc1Nc1ncc2c(n1)N1CCc3cccc(c31)C(=O)N2C

kinase still bound, per cent of control (BMPR1A (human)): 33% | kinase still bound, per cent of control (CAMK2G (human)): 11% | kinase still bound, per cent of control (CSK (human)): 12% | kinase still bound, per cent of control [4]: 29% | kinase still bound, per cent of control (MAP2K1 (human)): 26% | kinase still bound, per cent of control (MAP3K9 (human)): 28% | kinase still bound, per cent of control (MLTK (human)): 23% | kinase still bound, per cent of control (NEK7 (human)): 15% | kinase still bound, per cent of control (PAK6 (human)): 14% | kinase still bound, per cent of control (PKN2 (human)): 32% | kinase still bound, per cent of control (PRKD2 (human)): 8.1% | kinase still bound, per cent of control (TXK (human)): 13%
Structure (SMILES): N=C1NC(=O)/C(=C/c2ccc(-c3cncc4ccccc34)o2)S1

kinase still bound, per cent of control [3]: 16% | kinase still bound, per cent of control [4]: 6.6%
Structure (SMILES): Nc1cccc(-c2cc(/C=C3\SC(=O)NC3=O)c[nH]c2=O)c1

kinase still bound, per cent of control (CDK15 (human)): 9.4%
Structure (SMILES): N=C1NC(=O)/C(=C/c2ccc(-c3ccc(F)cc3O)o2)S1

kinase still bound, per cent of control (ANKK1 (human)): 26% | kinase still bound, per cent of control (DCLK1 (human)): 5.8% | kinase still bound, per cent of control (DCLK2 (human)): 18% | kinase still bound, per cent of control (NLK (human)): 16%
Structure (SMILES): CN1C(=O)[C@H]2CCC[C@H]2N(C2CCCC2)c2nc(Nc3ccc(C(N)=O)cc3)ncc21

kinase still bound, per cent of control (ABL1 (human)): 99% | kinase still bound, per cent of control [1]: 82% | kinase still bound, per cent of control [2]: 97% | kinase still bound, per cent of control (ADCK3 (human)): 99% | kinase still bound, per cent of control (ADCK4 (human)): 91% | kinase still bound, per cent of control (ANKK1 (human)): 32% | kinase still bound, per cent of control (BMPR1A (human)): 90% | kinase still bound, per cent of control (CAMK2G (human)): 100% | kinase still bound, per cent of control (CDK15 (human)): 100% | kinase still bound, per cent of control (CSK (human)): 100% | kinase still bound, per cent of control (DCLK1 (human)): 39% | kinase still bound, per cent of control (DCLK2 (human)): 70% | kinase still bound, per cent of control (DDR1 (human)): 100% | kinase still bound, per cent of control [3]: 100% | kinase still bound, per cent of control (FGFR2 (human)): 100% | kinase still bound, per cent of control (FLT1 (human)): 100% | kinase still bound, per cent of control (GSK3B (human)): 94% | kinase still bound, per cent of control [4]: 42% | kinase still bound, per cent of control (LATS2 (human)): 100% | kinase still bound, per cent of control (MAP2K1 (human)): 100% | kinase still bound, per cent of control (MAP3K10 (human)): 100% | kinase still bound, per cent of control (MAP3K11 (human)): 100% | kinase still bound, per cent of control (MAP3K3 (human)): 100% | kinase still bound, per cent of control (MAP3K9 (human)): 100% | kinase still bound, per cent of control (MAP4K1 (human)): 80% | kinase still bound, per cent of control (MAPK13 (human)): 90% | kinase still bound, per cent of control (MAPK3 (human)): 100% | kinase still bound, per cent of control (MLTK (human)): 100% | kinase still bound, per cent of control (MST1R (human)): 100% | kinase still bound, per cent of control (MYO3B (human)): 74% | kinase still bound, per cent of control (NEK7 (human)): 89% | kinase still bound, per cent of control (NLK (human)): 100% | kinase still bound, per cent of control (PAK6 (human)): 100% | kinase still bound, per cent of control (PIK3CD (human)): 91% | kinase still bound, per cent of control (PKN2 (human)): 70% | kinase still bound, per cent of control (PRKACB (human)): 100% | kinase still bound, per cent of control (PRKCQ (human)): 100% | kinase still bound, per cent of control (PRKD2 (human)): 100% | kinase still bound, per cent of control (ROS1 (human)): 100% | kinase still bound, per cent of control (RPS6KA5 KD1 (human)): 99% | kinase still bound, per cent of control (SRMS (human)): 84% | kinase still bound, per cent of control (TXK (human)): 96%
Structure (SMILES): CN1C(=O)c2ccccc2N(C)c2nc(NS(=O)(=O)c3ccc(N)cc3)ncc21

kinase still bound, per cent of control (ABL1 (human)): 34% | kinase still bound, per cent of control (BMPR1A (human)): 0.95% | kinase still bound, per cent of control (MLTK (human)): 7.6% | kinase still bound, per cent of control (NLK (human)): 24%
Structure (SMILES): CS(=O)(=O)Nc1ccc(-c2cncc(/C=C3\SC(=N)NC3=O)c2)cc1

kinase still bound, per cent of control (PRKD2 (human)): 0.1%
Structure (SMILES): N=C1NC(=O)/C(=C/c2c[nH]c(=O)c(-c3ccc(N4CCNCC4)nc3)c2)S1

kinase still bound, per cent of control (CDK15 (human)): 34%
Structure (SMILES): N=C1NC(=O)/C(=C/c2ccc(-c3ccccc3O)o2)S1

kinase still bound, per cent of control (ABL1 (human)): 27% | kinase still bound, per cent of control [1]: 28% | kinase still bound, per cent of control [2]: 4.6%
Structure (SMILES): CS(=O)(=O)Nc1ccc(-c2ncc(/C=C3\SC(=N)NC3=O)s2)cc1

kinase still bound, per cent of control (CDK15 (human)): 13% | kinase still bound, per cent of control (PIK3CD (human)): 26% | kinase still bound, per cent of control (PKN2 (human)): 31% | kinase still bound, per cent of control (SRMS (human)): 33%
Structure (SMILES): N=C1NC(=O)/C(=C/c2ccc(-c3ccc(C(N)=O)cc3O)o2)S1

kinase still bound, per cent of control (DDR1 (human)): 33% | kinase still bound, per cent of control (GSK3B (human)): 12% | kinase still bound, per cent of control (NEK7 (human)): 33%
Structure (SMILES): N=C1NC(=O)/C(=C/c2ccc(-c3csc4ccccc34)o2)S1

kinase still bound, per cent of control (ANKK1 (human)): 34% | kinase still bound, per cent of control (CAMK2G (human)): 32% | kinase still bound, per cent of control (CSK (human)): 33% | kinase still bound, per cent of control (FLT1 (human)): 28% | kinase still bound, per cent of control (MLTK (human)): 31% | kinase still bound, per cent of control (MYO3B (human)): 26% | kinase still bound, per cent of control (NEK7 (human)): 17% | kinase still bound, per cent of control (PAK6 (human)): 29% | kinase still bound, per cent of control (ROS1 (human)): 34%
Structure (SMILES): O=C1NC(=S)S/C1=C\c1ccc(-c2cncc3ccccc23)o1
